ChEMBL document CHEMBL4507291 (2021)

Legend:
Rattus norvegicus = species: Rattus norvegicus; test: Inhibition of Glutamate, NMDA, Phencyclidine at 10 µM in the Eurofins-Panlabs radioligand binding assay (Eurofins_assay_233000); assay type: protein-complex assay; conditions: Compound concentration 10.0 uM
[1] = target: Neuropeptide Y receptor type 2 (Homo sapiens) (UniProt P49146); test: Inhibition of Neuropeptide Y Y2 at 10 µM in the Eurofins-Panlabs radioligand binding assay (Eurofins_assay_257110); conditions: Compound concentration 10.0 uM
[2] = target: ATP-sensitive inward rectifier potassium channel 11 (Cricetulus griseus) (UniProt A0A3L7HHE1); test: Inhibition of Potassium Channel [KATP] at 10 µM in the Eurofins-Panlabs radioligand binding assay (Eurofins_assay_265600); conditions: Cricetinae; Compound concentration 10.0 uM
[3] = target: Substance-K receptor (Homo sapiens) (UniProt P21452); test: Inhibition of Tachykinin NK2 at 10 µM in the Eurofins-Panlabs radioligand binding assay (Eurofins_assay_255600); set-up: ligand concentration 0.5 nM; conditions: Compound concentration 10.0 uM
[4] = target: T1, Activin receptor type-1 (Homo sapiens) (UniProt Q04771); test: ACVR1 (ALK2) Kinase screen; conditions: Compound concentration 1.0 uM
T1 sequence (whole entry): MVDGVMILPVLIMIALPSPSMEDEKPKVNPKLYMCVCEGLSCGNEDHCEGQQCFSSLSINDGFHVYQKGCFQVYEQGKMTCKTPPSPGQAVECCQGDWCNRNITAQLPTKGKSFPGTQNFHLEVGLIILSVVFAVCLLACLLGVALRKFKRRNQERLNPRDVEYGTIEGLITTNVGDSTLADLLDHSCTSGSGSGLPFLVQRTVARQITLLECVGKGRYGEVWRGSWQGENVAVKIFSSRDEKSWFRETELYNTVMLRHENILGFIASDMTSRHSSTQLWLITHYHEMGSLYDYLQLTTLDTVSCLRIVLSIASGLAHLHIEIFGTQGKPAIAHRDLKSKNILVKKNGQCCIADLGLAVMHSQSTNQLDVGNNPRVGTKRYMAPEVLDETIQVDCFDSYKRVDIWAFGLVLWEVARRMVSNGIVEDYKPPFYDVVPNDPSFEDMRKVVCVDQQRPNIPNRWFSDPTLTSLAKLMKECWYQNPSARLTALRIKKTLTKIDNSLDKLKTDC

[5] = target: RAC-beta serine/threonine-protein kinase (Homo sapiens) (UniProt P31751); test: AKT2 (PKB beta) Kinase screen; conditions: Compound concentration 1.0 uM
[6] = target: AMPK alpha2/beta1/gamma1 (Homo sapiens) (UniProt P54646+P54619+Q9Y478); test: AMPK A2/B1/G1 Kinase screen; assay type: protein-complex assay; conditions: Compound concentration 1.0 uM
[7] = target: Calcium/calmodulin-dependent protein kinase kinase 1 (Homo sapiens) (UniProt Q8N5S9); test: CAMKK1 (CAMKKA) Kinase screen; conditions: Compound concentration 1.0 uM
[8] = target: CDK9/cyclin T1 (Homo sapiens) (UniProt O60563+P50750); test: CDK9/cyclin T1 Kinase screen; assay type: protein-complex assay; conditions: Compound concentration 1.0 uM
[9] = target: Dual specificity protein kinase CLK1 (Homo sapiens) (UniProt P49759); test: CLK1 Kinase screen; conditions: Compound concentration 1.0 uM
[10] = target: Ephrin type-A receptor 7 (Homo sapiens) (UniProt Q15375); test: EPHA7 Kinase screen; conditions: Compound concentration 1.0 uM
[11] = target: Tyrosine-protein kinase Fes/Fps (Homo sapiens) (UniProt P07332); test: FES (FPS) Kinase screen; conditions: Compound concentration 1.0 uM
[12] = target: G protein-coupled receptor kinase 5 (Homo sapiens) (UniProt P34947); test: GRK5 Kinase screen; conditions: Compound concentration 1.0 uM
[13] = target: LIM domain kinase 1 (Homo sapiens) (UniProt P53667); test: LIMK1 Kinase screen; conditions: Compound concentration 1.0 uM
[14] = target: LIM domain kinase 2 (Homo sapiens) (UniProt P53671); test: LIMK2 Kinase screen; conditions: Compound concentration 1.0 uM
[15] = target: Mitogen-activated protein kinase kinase kinase 8 (Homo sapiens) (UniProt P41279); test: MAP3K8 (COT) Kinase screen; conditions: Compound concentration 1.0 uM
[16] = target: T2, Mitogen-activated protein kinase 13 (Homo sapiens) (UniProt O15264); test: MAPK13 (p38 delta) Kinase screen; conditions: Compound concentration 1.0 uM
T2 sequence (whole entry): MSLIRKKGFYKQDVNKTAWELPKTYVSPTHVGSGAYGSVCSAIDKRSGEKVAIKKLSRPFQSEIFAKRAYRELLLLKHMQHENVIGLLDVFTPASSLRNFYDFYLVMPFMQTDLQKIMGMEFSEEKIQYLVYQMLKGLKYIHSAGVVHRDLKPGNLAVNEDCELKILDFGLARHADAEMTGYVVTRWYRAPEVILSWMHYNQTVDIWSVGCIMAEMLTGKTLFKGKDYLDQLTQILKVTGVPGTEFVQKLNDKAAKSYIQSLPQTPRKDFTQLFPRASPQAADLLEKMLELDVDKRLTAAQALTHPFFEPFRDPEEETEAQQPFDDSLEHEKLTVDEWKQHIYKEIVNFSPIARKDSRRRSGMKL

[17] = target: Serine/threonine-protein kinase MARK2 (Homo sapiens) (UniProt Q7KZI7); test: MARK2 Kinase screen; conditions: Compound concentration 1.0 uM
[18] = target: Misshapen-like kinase 1 (Homo sapiens) (UniProt Q8N4C8); test: MINK1 Kinase screen; conditions: Compound concentration 1.0 uM
[19] = target: MAP kinase-interacting serine/threonine-protein kinase 1 (Homo sapiens) (UniProt Q9BUB5); test: MKNK1 (MNK1) Kinase screen; conditions: Compound concentration 1.0 uM
[20] = target: Serine/threonine-protein kinase PAK 2 (Homo sapiens) (UniProt Q13177); test: PAK2 (PAK65) Kinase screen; conditions: Compound concentration 1.0 uM
[21] = target: PAS domain-containing serine/threonine-protein kinase (Homo sapiens) (UniProt Q96RG2); test: PASK Kinase screen; conditions: Compound concentration 1.0 uM
[22] = system: Platelet-derived growth factor receptor alpha (Homo sapiens), P16234 [T674I]; test: PDGFRA T674I Kinase screen; conditions: Compound concentration 1.0 uM
[23] = target: Protein kinase C beta type (Homo sapiens) (UniProt P05771); test: PRKCB1 (PKC beta I) Kinase screen; conditions: Compound concentration 1.0 uM
Homo sapiens = species: Homo sapiens; test: Chemokine CCR1 Eurofins-Panlabs radioligand binding assay; set-up: ligand concentration 0.1 nM; conditions: Compound concentration 10.0 uM
[24] = target: High affinity choline transporter 1 (Homo sapiens) (UniProt Q9GZV3); test: Transporter, Choline Eurofins-Panlabs radioligand binding assay; set-up: ligand concentration 0.75 nM; conditions: Rattus norvegicus; Compound concentration 10.0 uM
[25] = target: Vasopressin V1b receptor (Homo sapiens) (UniProt P47901); test: Inhibition of Vasopressin V1B at 10 µM in the Eurofins-Panlabs radioligand binding assay (Eurofins_assay_287560); set-up: ligand concentration 1 nM; conditions: Compound concentration 10.0 uM
[26] = target: 5-hydroxytryptamine receptor 2A (Homo sapiens) (UniProt P28223); conditions: Compound concentration 10.0 uM
[27] = target: Mu-type opioid receptor (Homo sapiens) (UniProt P35372); conditions: Compound concentration 10.0 uM

Measured: inhibition

Chain of Tyrosine-protein kinase Fes/Fps (Homo sapiens) (P07332 whole entry): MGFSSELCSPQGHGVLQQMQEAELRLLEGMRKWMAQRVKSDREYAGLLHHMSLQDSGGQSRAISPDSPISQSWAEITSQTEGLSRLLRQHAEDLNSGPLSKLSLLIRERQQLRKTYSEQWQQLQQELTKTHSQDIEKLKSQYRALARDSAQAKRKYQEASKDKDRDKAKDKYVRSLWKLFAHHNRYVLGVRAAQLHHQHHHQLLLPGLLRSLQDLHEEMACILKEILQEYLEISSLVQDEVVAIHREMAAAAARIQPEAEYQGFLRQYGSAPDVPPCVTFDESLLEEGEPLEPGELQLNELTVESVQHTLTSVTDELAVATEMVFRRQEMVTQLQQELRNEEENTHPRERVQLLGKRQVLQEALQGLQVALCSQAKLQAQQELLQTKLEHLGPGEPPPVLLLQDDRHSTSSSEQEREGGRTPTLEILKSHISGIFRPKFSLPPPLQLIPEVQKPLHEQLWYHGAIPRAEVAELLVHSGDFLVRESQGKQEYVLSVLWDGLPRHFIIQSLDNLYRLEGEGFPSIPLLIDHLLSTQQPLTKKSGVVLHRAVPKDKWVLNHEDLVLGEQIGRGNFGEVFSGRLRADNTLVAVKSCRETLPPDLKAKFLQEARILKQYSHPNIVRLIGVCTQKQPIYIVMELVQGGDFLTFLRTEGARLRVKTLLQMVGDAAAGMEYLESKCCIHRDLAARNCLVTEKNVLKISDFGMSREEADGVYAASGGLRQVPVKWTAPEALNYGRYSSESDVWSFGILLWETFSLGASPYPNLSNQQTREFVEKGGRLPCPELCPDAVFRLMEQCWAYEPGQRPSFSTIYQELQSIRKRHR
Chain of Dual specificity protein kinase CLK1 (Homo sapiens) (P49759 whole entry, looked up): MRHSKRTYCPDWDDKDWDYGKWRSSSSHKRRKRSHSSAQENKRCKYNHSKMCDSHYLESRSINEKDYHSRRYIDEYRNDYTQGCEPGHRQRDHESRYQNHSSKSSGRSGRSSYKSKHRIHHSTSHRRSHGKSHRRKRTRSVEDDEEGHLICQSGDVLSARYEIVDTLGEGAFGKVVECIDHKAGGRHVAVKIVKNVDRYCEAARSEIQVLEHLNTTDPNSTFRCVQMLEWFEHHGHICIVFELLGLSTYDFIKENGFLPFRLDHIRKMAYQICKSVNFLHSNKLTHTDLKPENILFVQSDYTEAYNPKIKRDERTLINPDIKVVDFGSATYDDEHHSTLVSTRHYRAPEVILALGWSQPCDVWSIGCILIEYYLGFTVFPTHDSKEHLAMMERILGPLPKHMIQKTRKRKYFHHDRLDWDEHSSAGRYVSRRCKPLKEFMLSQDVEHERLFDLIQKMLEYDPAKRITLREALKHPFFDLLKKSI
Chain of ATP-sensitive inward rectifier potassium channel 11 (Cricetulus griseus) (A0A3L7HHE1 as listed by the source): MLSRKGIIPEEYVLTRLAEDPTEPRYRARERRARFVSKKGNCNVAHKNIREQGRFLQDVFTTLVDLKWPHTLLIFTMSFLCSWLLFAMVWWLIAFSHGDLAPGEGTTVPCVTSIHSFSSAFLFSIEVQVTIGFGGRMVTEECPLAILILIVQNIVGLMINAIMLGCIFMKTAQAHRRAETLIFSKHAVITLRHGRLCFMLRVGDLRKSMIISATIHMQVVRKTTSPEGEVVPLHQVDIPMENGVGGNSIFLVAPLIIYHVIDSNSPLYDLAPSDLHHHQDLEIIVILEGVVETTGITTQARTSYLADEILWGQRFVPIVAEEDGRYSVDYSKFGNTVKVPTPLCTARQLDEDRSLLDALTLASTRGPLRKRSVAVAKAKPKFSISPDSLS
Chain of Platelet-derived growth factor receptor alpha (Homo sapiens), P16234 [T674I] (P16234 whole entry T674I): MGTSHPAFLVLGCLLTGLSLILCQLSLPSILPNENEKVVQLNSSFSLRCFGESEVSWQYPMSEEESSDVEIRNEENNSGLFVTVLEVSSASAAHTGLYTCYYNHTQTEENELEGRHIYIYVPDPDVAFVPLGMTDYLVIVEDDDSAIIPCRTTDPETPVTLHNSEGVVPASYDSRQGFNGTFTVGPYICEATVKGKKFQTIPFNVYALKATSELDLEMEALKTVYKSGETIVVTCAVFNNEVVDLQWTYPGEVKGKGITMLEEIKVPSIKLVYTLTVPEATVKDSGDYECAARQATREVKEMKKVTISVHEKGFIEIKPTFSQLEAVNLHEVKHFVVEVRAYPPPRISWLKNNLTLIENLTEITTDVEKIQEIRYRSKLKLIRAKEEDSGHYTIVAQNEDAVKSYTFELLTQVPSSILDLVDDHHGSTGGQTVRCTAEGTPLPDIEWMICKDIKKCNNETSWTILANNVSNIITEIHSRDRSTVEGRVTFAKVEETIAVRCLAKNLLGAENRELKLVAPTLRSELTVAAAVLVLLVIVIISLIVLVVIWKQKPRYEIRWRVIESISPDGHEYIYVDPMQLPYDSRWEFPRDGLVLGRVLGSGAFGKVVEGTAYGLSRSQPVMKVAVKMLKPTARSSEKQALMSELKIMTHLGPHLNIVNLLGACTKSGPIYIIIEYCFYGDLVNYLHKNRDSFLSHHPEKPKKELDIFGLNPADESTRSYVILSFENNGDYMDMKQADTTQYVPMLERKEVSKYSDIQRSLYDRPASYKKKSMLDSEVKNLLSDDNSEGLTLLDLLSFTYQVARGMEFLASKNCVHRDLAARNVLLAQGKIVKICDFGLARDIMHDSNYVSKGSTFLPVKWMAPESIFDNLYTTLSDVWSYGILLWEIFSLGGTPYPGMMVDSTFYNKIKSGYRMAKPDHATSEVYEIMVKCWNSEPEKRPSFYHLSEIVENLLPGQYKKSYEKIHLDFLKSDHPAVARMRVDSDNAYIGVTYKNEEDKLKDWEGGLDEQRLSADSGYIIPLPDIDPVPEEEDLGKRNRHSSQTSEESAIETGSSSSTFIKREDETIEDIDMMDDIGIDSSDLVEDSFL
Chain of Vasopressin V1b receptor (Homo sapiens) (P47901 whole entry): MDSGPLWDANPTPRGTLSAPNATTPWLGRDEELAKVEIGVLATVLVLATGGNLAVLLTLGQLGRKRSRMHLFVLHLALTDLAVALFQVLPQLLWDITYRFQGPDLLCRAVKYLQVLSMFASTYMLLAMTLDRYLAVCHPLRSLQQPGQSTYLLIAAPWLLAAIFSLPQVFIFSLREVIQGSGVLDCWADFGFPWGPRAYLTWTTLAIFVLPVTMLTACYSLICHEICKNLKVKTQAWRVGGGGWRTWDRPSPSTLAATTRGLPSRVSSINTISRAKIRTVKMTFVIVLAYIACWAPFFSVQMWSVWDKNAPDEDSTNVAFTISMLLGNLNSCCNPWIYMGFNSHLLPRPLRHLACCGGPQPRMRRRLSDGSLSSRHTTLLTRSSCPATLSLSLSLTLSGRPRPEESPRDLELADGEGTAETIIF
Chain of Calcium/calmodulin-dependent protein kinase kinase 1 (Homo sapiens) (Q8N5S9 whole entry, looked up): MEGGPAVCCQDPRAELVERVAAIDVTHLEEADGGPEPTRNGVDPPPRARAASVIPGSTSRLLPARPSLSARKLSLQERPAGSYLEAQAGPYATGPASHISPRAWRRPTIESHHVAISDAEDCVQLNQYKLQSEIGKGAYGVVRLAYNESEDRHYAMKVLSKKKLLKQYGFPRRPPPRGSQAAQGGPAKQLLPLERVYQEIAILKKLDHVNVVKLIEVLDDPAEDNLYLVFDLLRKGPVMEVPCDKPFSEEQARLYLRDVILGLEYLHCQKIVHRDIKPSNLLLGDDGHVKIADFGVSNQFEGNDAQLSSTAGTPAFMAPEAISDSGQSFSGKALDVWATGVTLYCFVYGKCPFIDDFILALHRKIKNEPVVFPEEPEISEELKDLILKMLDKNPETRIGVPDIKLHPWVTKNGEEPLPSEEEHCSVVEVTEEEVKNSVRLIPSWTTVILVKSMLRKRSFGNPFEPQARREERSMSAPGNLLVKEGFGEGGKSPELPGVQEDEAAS
Chain of Substance-K receptor (Homo sapiens) (P21452 whole entry): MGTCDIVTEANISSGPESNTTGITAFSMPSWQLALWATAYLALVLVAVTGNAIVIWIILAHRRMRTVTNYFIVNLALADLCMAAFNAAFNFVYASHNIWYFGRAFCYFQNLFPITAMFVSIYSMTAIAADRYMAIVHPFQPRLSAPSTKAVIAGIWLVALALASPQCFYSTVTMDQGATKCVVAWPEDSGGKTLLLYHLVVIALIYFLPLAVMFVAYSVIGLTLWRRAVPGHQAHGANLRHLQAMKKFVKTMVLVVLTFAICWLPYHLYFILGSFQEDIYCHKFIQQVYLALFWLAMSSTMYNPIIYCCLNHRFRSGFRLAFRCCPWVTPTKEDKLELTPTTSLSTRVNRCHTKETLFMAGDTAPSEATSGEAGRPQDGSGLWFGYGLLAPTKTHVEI
Chain of LIM domain kinase 1 (Homo sapiens) (P53667 whole entry, looked up, the tested form may be a part): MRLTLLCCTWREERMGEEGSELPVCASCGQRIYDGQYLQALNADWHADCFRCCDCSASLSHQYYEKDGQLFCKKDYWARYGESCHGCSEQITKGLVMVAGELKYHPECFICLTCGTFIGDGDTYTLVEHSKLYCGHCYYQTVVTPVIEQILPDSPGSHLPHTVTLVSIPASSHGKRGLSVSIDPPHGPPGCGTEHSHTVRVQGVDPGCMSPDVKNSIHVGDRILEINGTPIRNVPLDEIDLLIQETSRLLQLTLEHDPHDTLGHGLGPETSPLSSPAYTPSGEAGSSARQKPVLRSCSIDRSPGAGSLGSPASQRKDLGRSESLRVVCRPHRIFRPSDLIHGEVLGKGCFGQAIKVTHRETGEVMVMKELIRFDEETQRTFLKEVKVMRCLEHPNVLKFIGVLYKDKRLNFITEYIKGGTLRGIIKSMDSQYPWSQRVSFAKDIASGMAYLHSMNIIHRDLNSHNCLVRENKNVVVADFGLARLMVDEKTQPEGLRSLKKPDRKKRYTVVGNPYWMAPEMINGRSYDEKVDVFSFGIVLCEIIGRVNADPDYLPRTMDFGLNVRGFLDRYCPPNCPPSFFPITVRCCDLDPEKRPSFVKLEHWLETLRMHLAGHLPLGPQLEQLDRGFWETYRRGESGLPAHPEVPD

C[C@@H]1CN(c2cc(-c3n[nH]c4ccc(OC5(C)CC5)cc34)ncn2)C[C@H](C)O1 [MLi-2]
inactive: Rattus norvegicus -1% | [1] 1% | [2] 18% | [3] 27% | [4] 10.7% | [5] 5.53% | [6] 5.68% | [7] 12.6% | [8] 11.3% | [9] 15.7% | [10] 8.11% | [11] 6.03% | [12] 0.0771% | [13] 11% | [14] 0.642% | [15] 16.3% | [16] 4.25% | [17] 7.83% | [18] 4.58% | [19] -3.19% | [20] 8.73% | [21] -0.0985% | [22] 23.5% | [23] -7.69% | Homo sapiens -3% | [24] 18% | [25] 1% | [26] 6%

C[C@@H]1CN(c2cc(-c3nn(C)c4ccc(OC5(C)CC5)cc34)ncn2)C[C@H](C)O1 [MLi-2-NC]
inactive: [27] 13.2%
